Tests used:
[1] = tested on: LNCaP cells; experiment: MTT cytotoxicity assay; assay type: cell-based, Human; settings: for IC50: MTT, 72 h incubation
Method: (§1) The cytotoxic behaviors of MITO-DCA, TPP-DCA, Na-DCA, and TPP-Tris-(OH)3 were evaluated using the MTT assay against PC3, DU145, LNCaP, and MSC cells. Cells (2000 cells/well for PC3, DU145, and MSC cells; 5000 cells/well for LNCaP) were seeded on a 96-well plate in 100 μL of desired medium and incubated for 24 h. The cells were treated with different DCA compounds and TPP-Tris-(OH)3 at varying concentrations and incubated for 72 h at 37° C. The cells were then treated with 20 μL of MTT (5 mg/mL in PBS) for 5 h. The medium was removed, the cells were lysed with 100 μL of DMSO, and the absorbance of the purple tormazan was recorded at 550 nm using a Bio-Tek Synergy HT microplate reader. Each well was performed in triplicate. All experiments were repeated three times. Cytotoxicity was expressed as mean percentage increase relative to the unexposed control±SD. Control values were set at 0% cytotoxicity or 100% cell viability. Cytotoxicity data (where appropriate) was fitted to a sigmoidal curve and a three parameters logistic model used to calculate the IC50, which is the concentration of chemotherapeutics causing 50% inhibition in comparison to untreated controls. The mean IC50 is the concentration of agent that reduces cell growth by 50% under the experimental conditions and is the average from at least three independent measurements that were reproducible and statistically significant. The IC50 values were reported at ±99% confidence intervals. This analysis was performed with GraphPad Prism (San Diego, U.S.A).

[2] = tested on: PC3 cells; experiment: MTT cytotoxicity assay; assay type: cell-based, Human; settings: for IC50: MTT, 72 h incubation
Method: as §1

[3] = tested on: DU145 cells; experiment: MTT cytotoxicity assay; assay type: cell-based, Human; settings: for IC50: MTT, 72 h incubation
Method: as §1

[4] = tested on: mouse bone marrow derived dendritic cells (BMDCs); experiment: Cytokine secretion of BMDCs activated with supernatants of treated PC3 cells (ELISA); assay type: cell-based; settings: for IL-12 secretion from BMDCs: BMDCs 24 h
Description: Cancer cells recruit several pathways to evade elimination by the immune system (Kim et al., Immunology 121:1-14, 2007). Several mechanisms by which tumor cells escape immunity include upregulation of inhibitory molecules, production of immunosuppressive cytokines, and downregulation of costimulatory molecules (Rabinovich et al., Annu. Rev. Immunol. 25:267-296, 2007). Dendritic cells (DCs), the major players for the initiation of a specific anti-tumor T-cell response, are potential target to tumor-mediated immunosuppression. (Gabrilovich et al., Nat. Med. 2:1096-1103, 1996; Radmayr et al., Int. J. Cancer 63:627-632, 1995; Orsini et al., Cancer Res. 63:4497-4506, 2003.) Lactic acid secretion in highly proliferative glycolytic tumor has the ability to induce alteration in antigen phenotype and functional activity of DCs, which contributes to the suppression of local immunity (Gottfried et al. 2006). Tumor derived lactic acid inhibit the differentiation of monocytes to DCs, impair DC activation and antigen expression and suppress the proliferation, cytokine production and cytotoxic activity of T cells (Fischer et al., Blood 109:3812-3819, 2007). After observing significant and very selective reduction in lactate levels in PCa cells by MITO-DCA, the impact of the reduced lactate producing PC3 cell supernatants on DCs was investigated. Cancer cell supernatants were generated by treating PC3 cells with MITO-DCA (50 μM), Na-DCA (150 μM), and TPP-DCA (150 μM) for 24 h. First, investigated was the immune responses from the PC3 supernatants upon treatment with different DCA compounds by determining pro-inflammatory and anti-inflammatory cytokines interleukin (IL)-2, IL-4, IL-6, IL-10, IL-12, tumor necrosis factor (TNF)-α, and interferon-gamma (IFN-γ) using enzyme-linked immunosorbent assay (ELISA) (FIG. 6A) (Marrache et al., Integr. Biol. 5:215-223, 2013). […] The levels of all these three cytokines were higher for MITO-DCA treated cells compared to those, which were treated with TPP-DCA or Na-DCA. When DCs are activated appropriately, they take up tumor antigens and apoptotic bodies, migrate to the T-cell-rich area of the lymph nodes, initiate a series of actions for the selection of antigen-specific T cells, and the release of the DC cytokines such as IFN-γ and IL-12. The PC3 supernatants containing the tumor antigens were added to mouse bone marrow derived dendritic cells (BMDCs) and incubated at 37° C. (Marrache et al., 2013). […]
BMDCs were isolated from 6-8 weeks old C57BL/6 mice. […] The cells were counted, resuspended and transferred to petri dishes at the final concentration of 1.5×10^6 cells/mL. […] DC purity was tested by incubating BMDCs with LPS (100 ng/mL) and measured the surface expression of CD11c. […]

[5] = tested on: MSC cells; experiment: MTT cytotoxicity assay on normal cells; assay type: cell-based, Human; settings: 72 h
Method: as §1

[6] = supernatant of PC3 cells treated with 50 μM for 24 h

SMILES	Times less active than MITO-DCA ([1]; LNCaP cells, from IC50) [times]	IC50 [1] [µM]	IC50 [2] [µM]	Times less active than MITO-DCA ([2]; PC3 cells, from IC50) [times]	Times less active than MITO-DCA ([3]; DU145 cells, from IC50) [times]	IC50 [3] [µM]	IL-12 secretion from BMDCs ([4]; supernatant of PC3 cells treated with 150 μM for 24 h)	Toxicity in normal MSC cells [5]	Activity relative to Na-DCA ([1]; LNCaP cells, from IC50)	Activity relative to Na-DCA ([2]; PC3 cells, from IC50)	Activity relative to Na-DCA ([3]; DU145 cells, from IC50)	IL-10 production from BMDCs [4, 6]	TNF-α secretion from BMDCs [4, 6]	IL-12 secretion from BMDCs [4, 6]
O=C(OCCC[P+](c1ccccc1)(c1ccccc1)c1ccccc1)C(Cl)Cl.[Br-] [TPP-DCA]	~10	302 ± 37	68 ± 1	~4	~10	468 ± 49	lesser compared to MITO-DCA	did not show any toxic effects	–	–	–	–	–	–
O=C(CCCCC[P+](c1ccccc1)(c1ccccc1)c1ccccc1)NC(COC(=O)C(Cl)Cl)(COC(=O)C(Cl)Cl)COC(=O)C(Cl)Cl.[Br-] [MITO-DCA]	–	30 ± 6	17 ± 1	–	–	42 ± 2	–	did not show any toxic effects	three orders of magnitude more activity	three orders of magnitude more active	three orders of magnitude more activity	reducing IL-10 production	highest level	significant increased secretion of IL-12
